Experimental data: publication PMC5766581, “NF-κB inducing kinase is a therapeutic target for systemic lupus erythematosus” (Nature Communications, 2018)

Tests used:
[1] = system: p52 processing in murine B cells; test: p52 processing western blot in B cells; format: cell-based; conditions: mouse B cells
Method: (§1) p52/p100 and β-actin were monitored by western blot as described previously. Briefly, p52 processing was detected after 6 or 18 h of stimulation. Mouse and human RPTEC cells were stimulated with recombinant mouse or human TWEAK (100 ng/mL, R&D Systems). Primary B cells were isolated by negative selection (Miltenyi) from either mouse spleen or human whole blood. Human primary B cells were stimulated with either rhCD40L (10 μg/mL) or rhBAFF (400 ng/mL) (R&D Systems). Mouse primary B cells were stimulated with either anti-CD40 (10 μg/mL, BD Biosciences) or rmBAFF (400 ng/mL). After 6 or 18 h, whole cell extracts were generated using RIPA buffer (with protease and phosphatase inhibition), and approximately 10 μg of total protein was monitored for p52/p100 and β-Actin by western blot. HeLa cells (ATCC) were stimulated for 8 h with anti-LTβR agonist antibody and cytoplasmic and nuclear extracts were generated using kits purchase from Thermo Scientific and approximately […] of each extract was monitored for p52/p100, phospho-RelA, RelA, or β-Actin, Histone H3, or Lamin B1 controls. Uncropped western blots, as required by journal policies, are provided in Supplementary Fig. 13 and 14.

[2] = system: p52 processing in human B cells; test: p52 processing western blot in B cells; format: cell-based
Method: as §1

CAMKK1 = biological target: T1, CAMKK1 (Homo sapiens, UniProt Q8N5S9); test: SelectScreen kinase panel; format: binding
T1 construct: purchased Invitrogen / ThermoFisher SelectScreen
Method: (§2) The ability of NIK to catalyze the hydrolysis of adenosine-5′-triphosphate (ATP) was monitored using the Transcreener ADP (adenosine-5′-diphosphate) assay (Bell Brook Labs, Fitchburg, WI). Purified human NIK kinase domain (a.a. 340–694) (0.5 nM) or mouse NIK kinase domain (a.a. 329–675) (1 nM) derived from a baculovirus-infected insect cell expression system was incubated with test compounds for 0.5–2 h in 50 mM HEPES buffer (pH 7.2) containing 10 mM MgCl2, 2 mM dithiothreitol, 10 μM ATP, 0.01% Triton X-100, 0.1% gamma-globulins from bovine blood, 1% dimethylsulfoxide (DMSO), 7 μg/mL ADP antibody and 5 nM ADP-MR121 633 tracer. Reactions were quenched by the addition of 20 mM EDTA and 0.01% Brij 35. The tracer bound to the antibody was displaced by the ADP generated during the NIK reaction, which caused a decrease in fluorescence polarization that was measured by laser excitation at 633 nm with a Fluorescence Correlation Spectroscopy Plus reader (Evotec AG). Equilibrium dissociation constant (Ki) values for NIK inhibitors are calculated from plots of activity vs. inhibitor concentration using Morrison’s quadratic equation that accounts for the potential of tight binding, and by also applying the conversion factor that accounted for competitive inhibition and the concentration of substrate used in the assay relative to its Michaelis constant (Km). The Ki values with hPKD1 (PKCμ) were determined using the same assay conditions as for NIK. Ki measurements for hKHS1 and hLRRK2, as well as broad kinase selectivity profiling for SMI1, were carried out by Invitrogen using their SelectScreen kinase assay panel (ThermoFisher Scientific, Madison, WI). The vendor offered two types of kinase activity assays, a peptide phosphorylation assay (Z′-LYTE) and an ADP quantitation assay (Adapta), as well as one type of kinase ATP site competitive binding assay (LanthaScreen). See vendor web site for technology and protocol details for each specific kinase assay.
(§3) The average % Inhibition of each kinase is reported (Supplementary Table 1).

JNK2 = biological target: T2, JNK2 (Homo sapiens, UniProt P45984); test: SelectScreen kinase panel; format: binding
T2 construct: purchased Invitrogen / ThermoFisher SelectScreen
Method: as §2, §3

STK16 = biological target: T3, STK16 (Homo sapiens, UniProt O75716); test: SelectScreen kinase panel; format: binding
T3 construct: purchased Invitrogen / ThermoFisher SelectScreen
Method: as §2, §3

JNK3 = biological target: T4, JNK3 (Homo sapiens, UniProt P53779); test: SelectScreen kinase panel; format: binding
T4 construct: purchased Invitrogen / ThermoFisher SelectScreen
Method: as §2, §3

TAK1-TAB1 = biological target: T5, TAK1-TAB1 (Homo sapiens, UniProt O43318); test: SelectScreen kinase panel; format: binding
T5 construct: purchased Invitrogen / ThermoFisher SelectScreen
Method: as §2, §3

TGFBR1 = biological target: T6, TGFBR1 (Homo sapiens, UniProt P36897); test: SelectScreen kinase panel; format: binding
T6 construct: purchased Invitrogen / ThermoFisher SelectScreen
Method: as §2, §3

DRAK1 = biological target: T7, DRAK1 (Homo sapiens, UniProt Q9UEE5); test: SelectScreen kinase panel; format: binding
T7 construct: purchased Invitrogen / ThermoFisher SelectScreen
Method: as §2, §3

EphA3 = biological target: T8, EphA3 (Homo sapiens, UniProt P29320); test: SelectScreen kinase panel; format: binding
T8 construct: purchased Invitrogen / ThermoFisher SelectScreen
Method: as §2, §3

CDK8/cyclinC = biological target: T9, CDK8/cyclinC (Homo sapiens, UniProt P49336); test: SelectScreen kinase panel; format: binding
T9 construct: purchased Invitrogen / ThermoFisher SelectScreen
Method: as §2, §3

CLK4 = biological target: T10, CLK4 (Homo sapiens, UniProt Q9HAZ1); test: SelectScreen kinase panel; format: binding
T10 construct: purchased Invitrogen / ThermoFisher SelectScreen
Method: as §2, §3

MKK6 = biological target: T11, MKK6 (Homo sapiens, UniProt P52564); test: SelectScreen kinase panel; format: binding
T11 construct: purchased Invitrogen / ThermoFisher SelectScreen
Method: as §2, §3

ZAK = biological target: T12, ZAK (Homo sapiens, UniProt Q9NYL2); test: SelectScreen kinase panel; format: binding
T12 construct: purchased Invitrogen / ThermoFisher SelectScreen
Method: as §2, §3

DMPK = biological target: T13, DMPK (Homo sapiens, UniProt Q09013); test: SelectScreen kinase panel; format: binding
T13 construct: purchased Invitrogen / ThermoFisher SelectScreen
Method: as §2, §3

B -Raf = biological target: T14, B -Raf (Homo sapiens, UniProt P15056); test: SelectScreen kinase panel; format: binding
T14 construct: purchased Invitrogen / ThermoFisher SelectScreen
Method: as §2, §3

MLK2 = biological target: T15, MLK2 (Homo sapiens, UniProt Q02779); test: SelectScreen kinase panel; format: binding
T15 construct: purchased Invitrogen / ThermoFisher SelectScreen
Method: as §2, §3

MEKK2 = biological target: T16, MEKK2 (Homo sapiens, UniProt Q9Y2U5); test: SelectScreen kinase panel; format: binding
T16 construct: purchased Invitrogen / ThermoFisher SelectScreen
Method: as §2, §3

AVCR2B = biological target: T17, AVCR2B (Homo sapiens, UniProt Q13705); test: SelectScreen kinase panel; format: binding
T17 construct: purchased Invitrogen / ThermoFisher SelectScreen
Method: as §2, §3

MEK1 = biological target: T18, MEK1 (Homo sapiens, UniProt Q02750); test: SelectScreen kinase panel; format: binding
T18 construct: purchased Invitrogen / ThermoFisher SelectScreen
Method: as §2, §3

STK33 = biological target: T19, STK33 (Homo sapiens, UniProt Q9BYT3); test: SelectScreen kinase panel; format: binding
T19 construct: purchased Invitrogen / ThermoFisher SelectScreen
Method: as §2, §3

BMPR1A = biological target: T20, BMPR1A (Homo sapiens, UniProt P36894); test: SelectScreen kinase panel; format: binding
T20 construct: purchased Invitrogen / ThermoFisher SelectScreen
Method: as §2, §3

WNK2 = biological target: T21, WNK2 (Homo sapiens, UniProt Q9Y3S1); test: SelectScreen kinase panel; format: binding
T21 construct: purchased Invitrogen / ThermoFisher SelectScreen
Method: as §2, §3

TTK = biological target: T22, TTK (Homo sapiens, UniProt P33981); test: SelectScreen kinase panel; format: binding
T22 construct: purchased Invitrogen / ThermoFisher SelectScreen
Method: as §2, §3

RAF1 (Y340D, Y341D) = biological target: T23, RAF1 (Y340D, Y341D) (Homo sapiens, UniProt P04049, Y340D/Y341D); test: SelectScreen kinase panel; format: binding
T23 construct: purchased Invitrogen / ThermoFisher SelectScreen
Method: as §2, §3

T6 sequence (P36897 34-503): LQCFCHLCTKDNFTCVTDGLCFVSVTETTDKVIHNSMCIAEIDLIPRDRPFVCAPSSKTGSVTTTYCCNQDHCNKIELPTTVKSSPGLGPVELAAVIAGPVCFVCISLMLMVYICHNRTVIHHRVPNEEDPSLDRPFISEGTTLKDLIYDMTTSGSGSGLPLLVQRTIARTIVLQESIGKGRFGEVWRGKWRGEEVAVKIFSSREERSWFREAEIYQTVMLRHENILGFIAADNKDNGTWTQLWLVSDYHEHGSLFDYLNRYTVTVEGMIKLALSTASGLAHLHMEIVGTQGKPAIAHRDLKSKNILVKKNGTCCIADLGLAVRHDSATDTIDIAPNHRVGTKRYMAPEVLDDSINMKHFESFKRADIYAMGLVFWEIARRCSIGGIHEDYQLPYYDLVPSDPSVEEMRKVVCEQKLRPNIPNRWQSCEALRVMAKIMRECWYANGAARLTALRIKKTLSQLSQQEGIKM
T21 sequence (Q9Y3S1 whole entry): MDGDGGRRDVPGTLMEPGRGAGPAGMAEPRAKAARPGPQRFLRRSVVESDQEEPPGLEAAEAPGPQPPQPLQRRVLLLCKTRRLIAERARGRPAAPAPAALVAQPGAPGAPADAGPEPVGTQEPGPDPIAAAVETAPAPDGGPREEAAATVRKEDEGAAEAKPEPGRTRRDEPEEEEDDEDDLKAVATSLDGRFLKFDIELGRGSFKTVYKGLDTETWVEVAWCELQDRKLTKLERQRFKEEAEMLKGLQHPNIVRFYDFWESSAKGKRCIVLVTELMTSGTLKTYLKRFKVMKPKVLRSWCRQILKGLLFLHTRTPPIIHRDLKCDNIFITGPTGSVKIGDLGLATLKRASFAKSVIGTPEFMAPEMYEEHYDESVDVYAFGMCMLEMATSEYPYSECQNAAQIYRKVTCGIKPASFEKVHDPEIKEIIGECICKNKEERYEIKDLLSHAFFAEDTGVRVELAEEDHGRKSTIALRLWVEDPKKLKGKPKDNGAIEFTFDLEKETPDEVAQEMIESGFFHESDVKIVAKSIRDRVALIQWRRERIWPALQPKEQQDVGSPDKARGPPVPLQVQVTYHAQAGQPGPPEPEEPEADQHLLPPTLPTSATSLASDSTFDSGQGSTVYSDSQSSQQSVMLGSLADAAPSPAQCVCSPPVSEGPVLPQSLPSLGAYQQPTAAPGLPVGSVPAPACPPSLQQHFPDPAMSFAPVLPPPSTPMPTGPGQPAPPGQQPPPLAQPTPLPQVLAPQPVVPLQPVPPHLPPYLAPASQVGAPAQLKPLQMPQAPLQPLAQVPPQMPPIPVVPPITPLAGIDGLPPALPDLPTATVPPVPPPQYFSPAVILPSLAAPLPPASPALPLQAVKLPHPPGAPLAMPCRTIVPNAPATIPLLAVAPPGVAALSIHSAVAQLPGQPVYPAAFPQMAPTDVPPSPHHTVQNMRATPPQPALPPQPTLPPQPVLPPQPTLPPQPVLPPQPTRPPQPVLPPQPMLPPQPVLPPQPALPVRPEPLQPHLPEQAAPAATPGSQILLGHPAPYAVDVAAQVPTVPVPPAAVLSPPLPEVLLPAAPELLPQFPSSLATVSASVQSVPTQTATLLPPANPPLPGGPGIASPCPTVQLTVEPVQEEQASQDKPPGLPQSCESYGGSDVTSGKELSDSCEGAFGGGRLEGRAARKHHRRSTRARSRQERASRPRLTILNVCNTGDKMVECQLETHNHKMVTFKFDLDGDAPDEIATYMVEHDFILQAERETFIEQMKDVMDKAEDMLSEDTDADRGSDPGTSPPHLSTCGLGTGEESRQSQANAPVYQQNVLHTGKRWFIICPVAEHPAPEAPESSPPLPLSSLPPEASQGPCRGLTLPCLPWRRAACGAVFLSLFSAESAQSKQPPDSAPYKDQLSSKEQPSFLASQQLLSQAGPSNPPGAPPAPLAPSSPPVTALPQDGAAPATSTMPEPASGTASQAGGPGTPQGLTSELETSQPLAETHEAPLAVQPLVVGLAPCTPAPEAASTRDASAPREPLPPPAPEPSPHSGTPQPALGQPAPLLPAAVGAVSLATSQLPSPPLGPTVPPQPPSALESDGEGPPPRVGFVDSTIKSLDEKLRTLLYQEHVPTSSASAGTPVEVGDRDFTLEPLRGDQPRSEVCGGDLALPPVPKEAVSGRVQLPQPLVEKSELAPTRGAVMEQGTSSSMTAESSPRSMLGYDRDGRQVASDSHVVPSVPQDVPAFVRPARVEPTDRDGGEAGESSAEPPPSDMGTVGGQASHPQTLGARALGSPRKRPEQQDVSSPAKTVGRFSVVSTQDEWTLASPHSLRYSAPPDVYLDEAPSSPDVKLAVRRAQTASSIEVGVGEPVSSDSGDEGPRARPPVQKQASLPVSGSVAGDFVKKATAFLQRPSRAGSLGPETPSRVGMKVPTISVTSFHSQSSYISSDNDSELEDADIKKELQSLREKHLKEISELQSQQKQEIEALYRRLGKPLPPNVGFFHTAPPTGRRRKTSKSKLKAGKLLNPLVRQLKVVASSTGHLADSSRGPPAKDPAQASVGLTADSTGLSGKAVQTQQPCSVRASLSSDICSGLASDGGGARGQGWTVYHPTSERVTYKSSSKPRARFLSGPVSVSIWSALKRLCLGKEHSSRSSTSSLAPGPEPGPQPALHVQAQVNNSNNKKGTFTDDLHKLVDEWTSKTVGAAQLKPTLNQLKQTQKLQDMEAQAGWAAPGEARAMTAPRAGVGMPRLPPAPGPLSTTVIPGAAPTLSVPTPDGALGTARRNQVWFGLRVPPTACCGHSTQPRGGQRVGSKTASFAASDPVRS
T22 sequence (P33981 whole entry): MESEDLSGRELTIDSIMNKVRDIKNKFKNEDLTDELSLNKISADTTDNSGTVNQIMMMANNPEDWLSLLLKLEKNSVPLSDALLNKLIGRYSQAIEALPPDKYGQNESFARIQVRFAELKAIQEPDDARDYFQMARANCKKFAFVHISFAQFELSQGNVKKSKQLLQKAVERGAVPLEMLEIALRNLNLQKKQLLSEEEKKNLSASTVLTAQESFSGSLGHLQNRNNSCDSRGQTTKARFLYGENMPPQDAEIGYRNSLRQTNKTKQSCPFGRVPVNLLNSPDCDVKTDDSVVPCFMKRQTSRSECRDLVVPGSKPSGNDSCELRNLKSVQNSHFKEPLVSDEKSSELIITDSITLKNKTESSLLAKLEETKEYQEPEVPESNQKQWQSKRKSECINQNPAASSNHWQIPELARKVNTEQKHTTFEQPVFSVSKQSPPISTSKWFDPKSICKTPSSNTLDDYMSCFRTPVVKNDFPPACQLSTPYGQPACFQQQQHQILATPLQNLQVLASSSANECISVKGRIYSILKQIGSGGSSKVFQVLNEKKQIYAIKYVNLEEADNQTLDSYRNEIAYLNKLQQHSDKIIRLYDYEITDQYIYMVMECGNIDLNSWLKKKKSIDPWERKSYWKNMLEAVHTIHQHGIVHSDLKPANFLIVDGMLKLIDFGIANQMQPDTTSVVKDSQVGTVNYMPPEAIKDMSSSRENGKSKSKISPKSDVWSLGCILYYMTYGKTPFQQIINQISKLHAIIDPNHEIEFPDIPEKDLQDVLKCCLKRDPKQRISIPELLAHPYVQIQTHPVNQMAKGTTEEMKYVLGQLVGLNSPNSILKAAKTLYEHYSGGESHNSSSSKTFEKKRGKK
T8 sequence (P29320 21-983): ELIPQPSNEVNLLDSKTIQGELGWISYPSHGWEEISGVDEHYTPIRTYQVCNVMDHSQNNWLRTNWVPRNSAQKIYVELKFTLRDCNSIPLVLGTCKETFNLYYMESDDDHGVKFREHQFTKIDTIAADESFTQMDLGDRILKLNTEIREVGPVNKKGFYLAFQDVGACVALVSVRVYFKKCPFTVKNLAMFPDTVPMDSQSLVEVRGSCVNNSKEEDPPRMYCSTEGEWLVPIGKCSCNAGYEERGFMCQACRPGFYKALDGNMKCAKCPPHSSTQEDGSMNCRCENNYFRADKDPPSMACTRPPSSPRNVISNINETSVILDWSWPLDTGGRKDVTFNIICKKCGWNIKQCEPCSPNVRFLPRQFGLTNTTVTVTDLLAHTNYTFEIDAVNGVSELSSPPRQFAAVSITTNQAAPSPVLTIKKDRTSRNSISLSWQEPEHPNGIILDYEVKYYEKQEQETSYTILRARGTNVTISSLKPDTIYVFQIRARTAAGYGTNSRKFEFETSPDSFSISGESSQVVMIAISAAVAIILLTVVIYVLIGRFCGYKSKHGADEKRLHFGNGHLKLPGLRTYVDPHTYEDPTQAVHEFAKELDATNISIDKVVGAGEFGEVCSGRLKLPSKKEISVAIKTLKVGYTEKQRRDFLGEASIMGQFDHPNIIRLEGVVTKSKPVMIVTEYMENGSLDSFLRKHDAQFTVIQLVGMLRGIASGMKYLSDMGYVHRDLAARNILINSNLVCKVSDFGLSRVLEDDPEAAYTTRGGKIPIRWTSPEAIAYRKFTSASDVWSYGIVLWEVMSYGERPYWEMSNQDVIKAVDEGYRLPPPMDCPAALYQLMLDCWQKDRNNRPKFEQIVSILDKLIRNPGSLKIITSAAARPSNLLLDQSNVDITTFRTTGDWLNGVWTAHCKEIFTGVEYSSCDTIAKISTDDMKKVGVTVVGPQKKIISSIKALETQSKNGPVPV
T1 sequence (Q8N5S9 whole entry): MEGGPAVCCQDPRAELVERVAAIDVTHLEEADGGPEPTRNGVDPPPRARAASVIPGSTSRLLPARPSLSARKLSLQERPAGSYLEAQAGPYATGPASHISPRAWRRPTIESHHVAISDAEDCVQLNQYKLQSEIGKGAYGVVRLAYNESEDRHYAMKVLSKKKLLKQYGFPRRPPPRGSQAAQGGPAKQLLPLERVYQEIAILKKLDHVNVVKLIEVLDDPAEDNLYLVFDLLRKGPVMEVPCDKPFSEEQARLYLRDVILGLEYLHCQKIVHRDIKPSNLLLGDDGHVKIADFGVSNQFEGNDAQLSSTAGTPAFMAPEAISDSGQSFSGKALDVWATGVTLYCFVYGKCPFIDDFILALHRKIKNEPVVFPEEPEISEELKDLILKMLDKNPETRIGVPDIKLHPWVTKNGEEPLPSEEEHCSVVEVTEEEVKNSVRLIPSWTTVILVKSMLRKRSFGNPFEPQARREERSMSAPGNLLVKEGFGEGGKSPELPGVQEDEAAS

Question: Which results are given for COc1cc(C(N)=O)nc(-c2cccc(C#C[C@]3(O)CCN(C)C3=O)c2)c1 [NIK SMI1]?
Answer: BAFF-induced and CD40-induced p52 processing [1]: significantly inhibited; BAFF-induced and CD40-induced p52 processing [2]: significantly inhibited; inhibition at 1 µM (CAMKK1): -11.6%; inhibition at 1 µM (JNK2): 3%; inhibition at 1 µM (STK16): 1%; inhibition at 1 µM (JNK3): 4.6%; inhibition at 1 µM (TAK1-TAB1): 31.1%; inhibition at 1 µM (TGFBR1): -9.4%; inhibition at 1 µM (DRAK1): 3.4%; inhibition at 1 µM (EphA3): -5.2%; inhibition at 1 µM (CDK8/cyclinC): 7.8%; inhibition at 1 µM (CLK4): 13.7%; inhibition at 1 µM (MKK6): 13.2%; inhibition at 1 µM (ZAK): -0.8%; inhibition at 1 µM (DMPK): 1.6%; inhibition at 1 µM (B -Raf): -0.3%; inhibition at 1 µM (MLK2): 9.9%; inhibition at 1 µM (MEKK2): 66.8%; inhibition at 1 µM (AVCR2B): 0.8%; inhibition at 1 µM (MEK1): 43.1%; inhibition at 1 µM (STK33): 3.9%; inhibition at 1 µM (BMPR1A): -3.9%; inhibition at 1 µM (WNK2): 1.7%; inhibition at 1 µM (TTK): 13.2%; inhibition at 1 µM (RAF1 (Y340D, Y341D)): -1.5%
